From patent US20050281848A1, “Oleaginous ointments comprising two solubilized bioactive agents for the treatment of psoriasis” (GALDERMA S.A., priority 2004, published 2005)

Legend:
Assay type in all cases: physicochemical
[1] = Chemical stability of the actives in Composition 2
Procedure: The compositions of the invention are found particularly effective in conserving satisfactory chemical stability of active principles which are sensitive to oxidation, to water and to aqueous media in general. The term “satisfactory chemical stability” refers to a composition which over a period of at least 3 months, respectively at ambient temperature and at 40° C.:
has an active principles content of at least 80%, in particular at least 90% and more particularly at least 95% of the initial weight content.

[2] = Stability of calcitriol in Miglyol 812 (HPLC assay against a reference); conditions: for Calcitriol content, T0 taken as 100%: calcitriol 30 ppm in Miglyol 812, 0.4% BHT, under nitrogen
Procedure: The stability of calcitriol was evaluated in the following two oil solvents: Miglyol 812 and Cetiol SN. a) Stability of Calcitriol in Miglyol 812 (Caprylic and 20 Capric Triglycerides): A solution is prepared of calcitriol 30 ppm in qs 100% of Miglyol 812 in the presence of 0.4% of BHT (antioxidant), kept under nitrogen. The initial time (TO) is taken as 100%.

[3] = Stability of calcitriol in Cetiol SN (HPLC assay against a reference); conditions: for Calcitriol content, T0 taken as 100%: calcitriol 30 ppm in Cetiol SN, 0.4% BHT, under nitrogen
Procedure: b) Stability of Calcitriol in Cetiol SN (Cetearyl Isononanoate): A solution is prepared of calcitriol 30 ppm in qs 100% of Cetiol SN in the presence of 0.4% of BHT and kept under nitrogen. The initial time (TO) is taken as 100%.

| SMILES | Chemical stability: content of the active ([1]; T0, AT) | Chemical stability: content of the active ([1]; T15 d, 40° C.) | Chemical stability: content of the active ([1]; T15 d, AT) | Calcitriol content, T0 taken as 100% ([2]; +4° C., T2 weeks) [%] | Calcitriol content, T0 taken as 100% ([2]; +4° C., T4 weeks) [%] | Calcitriol content, T0 taken as 100% ([2]; +40° C., T2 weeks) [%] | Calcitriol content, T0 taken as 100% ([2]; +40° C., T4 weeks) [%] | Calcitriol content, T0 taken as 100% ([2]; ambient temperature, T2 weeks) [%] | Calcitriol content, T0 taken as 100% ([2]; ambient temperature, T4 weeks) [%] | Stability in solution ([2]; in caprylic/capric triglyceride, 1 month) | Calcitriol content, T0 taken as 100% ([3]; +4° C., T2 weeks) [%] | Calcitriol content, T0 taken as 100% ([3]; +4° C., T4 weeks) [%] | Calcitriol content, T0 taken as 100% ([3]; +40° C., T2 weeks) [%] | Calcitriol content, T0 taken as 100% ([3]; +40° C., T4 weeks) [%] | Calcitriol content, T0 taken as 100% ([3]; AT, T2 weeks) [%] | Calcitriol content, T0 taken as 100% ([3]; AT, T4 weeks) [%] | Stability in solution ([3]; in cetearyl isononanoate, 1 month) |
| --- | --- | --- | --- | --- | --- | --- | --- | --- | --- | --- | --- | --- | --- | --- | --- | --- | --- |
| CCC(=O)O[C@]1(C(=O)CCl)[C@@H](C)C[C@H]2[C@@H]3CCC4=CC(=O)C=C[C@]4(C)[C@@]3(F)[C@@H](O)C[C@@]21C [CLOBETASOL PROPIONATE, clobetasol 17-propionate] | PROPIONATE: 97.3% | PROPIONATE: 92.3 | PROPIONATE: 95.2 |  |  |  |  |  |  |  |  |  |  |  |  |  |  |
| C=C1/C(=C\C=C2/CCC[C@]3(C)[C@@H]([C@H](C)CCCC(C)(C)O)CC[C@@H]23)C[C@@H](O)C[C@@H]1O [calcitriol] | CALCITRIOL: 97.6% | CALCITRIOL: 86.8 | CALCITRIOL: 95.1 | 98.2 | 105.2 | 93.1 | 95.0 | 95.8 | 98.0 | stable | 103.7 | 97.9 | 99.4 | 98.1 | 99.6 | 98.7 | stable |
